These results are taken from US11066414B2, “Cot modulators and methods of use thereof” (Gilead Sciences, Inc., priority 2015, dated 2021).

Read-outs that look alike come from different tables or passages of the source.

In assay [1] the target is Human Cot (Homo sapiens (Human), UniProt P41279). As to the kind of experiment: High Throughput Cot Biochemical Assay. Particulars: Cot HTRF (TR-FRET) biochemical assay.
The subject of assay [2] is TNFα. Put plainly: Cot Monocyte TNFα Cell Based Assay.
[3] abbreviates: Homo sapiens, Monocyte, read-out: EC50 TNF, LPS-stimulated human monocytes, TNFα.

Chain of Human Cot (P41279 30-397): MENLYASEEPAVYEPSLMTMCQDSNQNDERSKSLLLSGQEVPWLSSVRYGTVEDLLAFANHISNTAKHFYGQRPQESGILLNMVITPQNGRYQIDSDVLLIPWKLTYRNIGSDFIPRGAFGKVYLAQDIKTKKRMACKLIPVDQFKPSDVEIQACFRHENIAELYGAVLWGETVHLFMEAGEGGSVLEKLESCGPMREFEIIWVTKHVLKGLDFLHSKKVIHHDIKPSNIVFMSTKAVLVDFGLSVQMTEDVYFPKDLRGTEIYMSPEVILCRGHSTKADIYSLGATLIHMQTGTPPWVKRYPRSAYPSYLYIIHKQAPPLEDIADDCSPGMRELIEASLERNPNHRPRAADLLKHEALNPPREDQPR

What is called IC50 is the concentration that inhibits the measured activity by half. As a reminder, the EC50 is the concentration giving half of the maximal effect. For `N#Cc1cnc2c(Cl)cc(N[C@H](c3c[nH]nn3)c3csc4c3CCN(C3COC3)C4)cc2c1Nc1ccc(Cl)c(Cl)c1F` [Example 222, (S)-8-chloro-4-((3,4-dichloro-2-fluorophenyl)amino)-6-(((6-(oxetan-3-yl)-4,5,6,7-tetrahydrothieno[2,3-c]pyridin-3-yl)(1H-1,2,3-triazol-4-yl)methyl)amino)quinoline-3-carbonitrile], the IC50 in assay [1] (IC50 HTRF) worked out at 19 nM. Also, the EC50 in assay [2] (setting [3]) came to 739 nM.

In assay [1] (IC50 HTRF), `CC(C)(C)N1CCC(n2cc([C@@H](Nc3cc(Cl)c4ncc(C#N)c(Nc5ccc(Cl)c(Cl)c5F)c4c3)c3csc4c3CCN(C3COC3)C4)nn2)CC1` [Example 223, (S)-6-(((1-(1-(tert-butyl)piperidin-4-yl)-1H-1,2,3-triazol-4-yl)(6-(oxetan-3-yl)-4,5,6,7-tetrahydrothieno[2,3-c]pyridin-3-yl)methyl)amino)-8-chloro-4-((3,4-dichloro-2-fluorophenyl)amino)quinoline-3-carbonitrile] displayed a half-maximal inhibitory concentration (IC50) of 7 nM. For the same compound, in assay [2] (setting [3]), the EC50 was determined as 94 nM.

With `Cc1ncccc1[C@H](Nc1cc(Cl)c2ncc(C#N)c(Nc3cccc(Cl)c3)c2c1)c1cn(C(C)C)nn1` [Example 225, (S)-8-chloro-4-((3-chlorophenyl)amino)-6-(((1-isopropyl-1H-1,2,3-triazol-4-yl)(2-methylpyridin-3-yl)methyl)amino)quinoline-3-carbonitrile], the IC50 in assay [1] (IC50 HTRF) is 10 nM. Further, in assay [2] (setting [3]), the EC50 amounted to 1490 nM.

Compound `Cc1ncccc1[C@H](Nc1cc(Cl)c2ncc(C#N)c(Nc3cccc(Cl)c3)c2c1)c1cn(C2CCN(C(C)(C)C)CC2)nn1` [Example 226, (S)-6-(((1-(1-(tert-butyl)piperidin-4-yl)-1H-1,2,3-triazol-4-yl)(2-methylpyridin-3-yl)methyl)amino)-8-chloro-4-((3-chlorophenyl)amino)quinoline-3-carbonitrile] came in with a half-maximal inhibitory concentration (IC50) in assay [1] (IC50 HTRF) of 8 nM. Moreover, in assay [2] (setting [3]), the EC50 worked out at 880 nM.

Regarding `Cc1ncccc1[C@H](Nc1cc(Cl)c2ncc(C#N)c(Nc3ccc(Cl)c(Cl)c3F)c2c1)c1c[nH]nn1` [Example 227, (S)-8-chloro-4-((3,4-dichloro-2-fluorophenyl)amino)-6-(((2-methylpyridin-3-yl)(1H-1,2,3-triazol-4-yl)methyl)amino)-quinoline-3-carbonitrile], the IC50 in assay [1] (IC50 HTRF) was determined as 44 nM. In addition, in assay [2] (setting [3]), the EC50 was 6420 nM.

For the compound `Cc1cncc([C@H](Nc2cc(Cl)c3ncc(C#N)c(Nc4ccc(F)c(Cl)c4)c3c2)c2cn(C(C)C)nn2)c1` [Example 228, (S)-8-chloro-4-((3-chloro-4-fluorophenyl)amino)-6-(((1-isopropyl-1H-1,2,3-triazol-4-yl)(5-methylpyridin-3-yl)methyl)amino)quinoline-3-carbonitrile], it took 18 nM to reach half-maximal inhibition in assay [1] (IC50 HTRF) (IC50). Besides, the EC50 in assay [2] (setting [3]) came out at 2310 nM.

On to `Cc1ncccc1[C@H](Nc1cc(Cl)c2ncc(C#N)c(N[C@H](C)c3ccccc3)c2c1)c1cn(C(C)C)nn1` [Example 230, 8-chloro-6-(((S)-(1-isopropyl-1H-1,2,3-triazol-4-yl)(2-methylpyridin-3-yl)methyl)amino)-4-(((R)-1-phenylethyl)amino)quinoline-3-carbonitrile], for which it took 9 nM to reach half-maximal inhibition in assay [1] (IC50 HTRF) (IC50). For the same compound, the EC50 in assay [2] (setting [3]) stood at 252 nM.

As for `Cc1ncccc1[C@H](Nc1cc(Cl)c2ncc(C#N)c(Nc3ccc(Cl)c(Cl)c3F)c2c1)c1cn(C2CCN(C(C)(C)C)CC2)nn1` [Example 233, (S)-6-(((1-(1-(tert-butyl)piperidin-4-yl)-1H-1,2,3-triazol-4-yl)(2-methylpyridin-3-yl)methyl)amino)-8-chloro-4-((3,4-dichloro-2-fluorophenyl)amino)quinoline-3-carbonitrile], in assay [1] (IC50 HTRF), half-maximal inhibition (IC50) required 8 nM. Besides, in assay [2] (setting [3]), the EC50 was 114 nM.

In assay [1] (IC50 HTRF), `Cc1ncsc1[C@H](Nc1cc(Cl)c2ncc(C#N)c(Nc3ccc(Cl)c(Cl)c3F)c2c1)c1c[nH]nn1` [Example 234, (R)-8-chloro-4-((3,4-dichloro-2-fluorophenyl)amino)-6-(((4-methylthiazol-5-yl)(1H-1,2,3-triazol-4-yl)methyl)amino)quinoline-3-carbonitrile] yielded an IC50 of 21 nM. The EC50 in assay [2] (setting [3]) amounted to 504 nM.

Compound `Cc1ncsc1[C@H](Nc1cc(Cl)c2ncc(C#N)c(Nc3ccc(Cl)c(Cl)c3F)c2c1)c1cn(C(C)C)nn1` [Example 235, (R)-8-chloro-4-((3,4-dichloro-2-fluorophenyl)amino)-6-(((1-isopropyl-1H-1,2,3-triazol-4-yl)(4-methylthiazol-5-yl)methyl)amino)quinoline-3-carbonitrile] showed an IC50 in assay [1] (IC50 HTRF) of 17 nM. Also, the EC50 in assay [2] (setting [3]) was determined as 370 nM.

In assay [1] (IC50 HTRF), `Cc1ncsc1[C@H](Nc1cc(Cl)c2ncc(C#N)c(Nc3ccc(Cl)c(Cl)c3F)c2c1)c1cn(C2CCN(C(C)(C)C)CC2)nn1` [Example 236, (R)-6-(((1-(1-(tert-butyl)piperidin-4-yl)-1H-1,2,3-triazol-4-yl)(4-methylthiazol-5-yl)methyl)amino)-8-chloro-4-((3,4-dichloro-2-fluorophenyl)amino)quinoline-3-carbonitrile] displayed an IC50 of 9 nM. Besides, in assay [2] (setting [3]), the EC50 is 172 nM.

Consider `C[C@@H](Nc1c(C#N)cnc2c(Cl)cc(N[C@H](c3cn(C4CCN(C(C)(C)C)CC4)nn3)c3csc4c3CCN(C3COC3)C4)cc12)c1ccccc1` [Example 237], for which the IC50 in assay [1] (read-out: IC50 HTRF) was determined as 1 nM. Further, the EC50 in assay [2] (read-out: EC50 TNF, LPS-stimulated human monocytes, TNFα) is 29 nM.

In assay [1] (IC50 HTRF), `C[C@@H](Nc1c(C#N)cnc2c(Cl)cc(N[C@H](c3c[nH]nn3)c3csc4c3CCN(C3COC3)C4)cc12)c1ccccc1` [Example 238, 8-chloro-6-(((S)-(6-(oxetan-3-yl)-4,5,6,7-tetrahydrothieno[2,3-c]pyridin-3-yl)(1H-1,2,3-triazol-4-yl)methyl)amino)-4-(((R)-1-phenylethyl)amino)quinoline-3-carbonitrile] gave a 50% inhibitory concentration (IC50) of 3 nM. The EC50 in assay [2] (setting [3]) came to 901 nM.

For the compound `Cc1ncsc1[C@H](Nc1cc(Cl)c2ncc(C#N)c(N[C@H](C)c3ccccc3)c2c1)c1cn(C(C)C)nn1` [Example 239, 8-chloro-6-(((R)-(1-isopropyl-1H-1,2,3-triazol-4-yl)(4-methylthiazol-5-yl)methyl)amino)-4-(((R)-1-phenylethyl)amino)quinoline-3-carbonitrile], the half-inhibitory concentration (IC50) in assay [1] (IC50 HTRF) was 16 nM. For the same compound, the EC50 in assay [2] (setting [3]) worked out at 928 nM.

In assay [1] (IC50 HTRF), `Cc1ncsc1[C@H](Nc1cc(Cl)c2ncc(C#N)c(N[C@H](C)c3ccccc3)c2c1)c1cn(C2CCN(C(C)(C)C)CC2)nn1` [Example 240, 6-(((R)-(1-(1-(tert-butyl)piperidin-4-yl)-1H-1,2,3-triazol-4-yl)(4-methylthiazol-5-yl)methyl)amino)-8-chloro-4-(((R)-1-phenylethyl)amino)quinoline-3-carbonitrile] had an IC50 of 16 nM. The EC50 in assay [2] (setting [3]) worked out at 631 nM.

In the case of `CC(C)(C)N1CCC(n2cc([C@@H](Nc3cc(Cl)c4ncc(C#N)c(Nc5cccc(Cl)c5F)c4c3)c3csc4c3CCN(C3COC3)C4)nn2)CC1` [Example 241, (S)-6-(((1-(1-(tert-butyl)piperidin-4-yl)-1H-1,2,3-triazol-4-yl)(6-(oxetan-3-yl)-4,5,6,7-tetrahydrothieno[2,3-c]pyridin-3-yl)methyl)amino)-8-chloro-4-((3-chloro-2-fluorophenyl)amino)-quinoline-3-carbonitrile], it took 2 nM to reach half-maximal inhibition in assay [1] (IC50 HTRF) (IC50). The EC50 in assay [2] (setting [3]) stood at 32 nM.
